Data from a melting point compilation (Tetko et al.; mined from patent text by program, amines drawn as free bases though some values may be those of a salt).

Row | Structure (SMILES) | melting point
1 | CCOC(=O)c1cnc2nc(C)ccc2c1OCC | 82 to 83 °C
2 | CN1C(=O)CC[C@]2(C)c3ccc(Sc4ncccc4[N+](=O)[O-])cc3CC[C@@H]12 | 80 to 84 °C
3 | S=C1Nc2ccccc2Cn2nnnc21 | 275 to 277 °C
4 | CSc1noc(-c2ccc(OCCOc3ccc(Br)cc3)cc2)c1C#N | 156 to 157 °C
5 | Cc1oc(-c2ccco2)nc1/C=C/c1ccc(C=CC=C2OC(=O)NC2=O)cc1 | 290 to 291 °C
6 | Cn1ncnc1COc1nn2c(-c3ccc(F)cc3F)nncc2c1-c1ccccc1F | 164 to 166 °C
7 | COc1cccc(C(=O)NN=C2C(=O)Nc3ccc(I)cc32)c1 | 287 °C
8 | COc1cc(OC)c2c(=O)[nH]c(-c3cccc(N4CCN(C(C)C)CC4)c3)nc2c1 | 251 to 253 °C
9 | Brc1cnn2ccc(N3CCNCC3)nc12 | 108 to 109 °C
10 | O=c1[nH]c2cc(F)c(O)c([N+](=O)[O-])c2[nH]c1=O | > 360 °C
11 | O=[N+]([O-])c1ccc2c(c1)C(c1ccccc1F)=[N+]([O-])C(CCl)N2 (configuration not stated) | 220 to 224 °C
12 | CCOC(=O)CN=C1N[C@](C)(Cc2ccc(Br)cc2)C(=O)N1c1cc(Cl)cc(Cl)c1 | 103 to 105 °C
13 | O=C(O)CCCOc1ccc(N2CCN(c3ccncc3)CC2)cc1 | 305 to 306 °C
14 | Cc1ccccc1-c1c(NC(=O)Nc2ccc(F)cc2F)c(=O)oc2ccc(Cl)cc12 | 210 to 212 °C
15 | CC(C)(C)OP(=O)(CO)OC(C)(C)C | 100 to 102 °C
16 | Nc1nc(OCC2CC2)c2ncn(C3CC(F)C(CO)O3)c2n1 (configuration not stated) | 80 to 81 °C
17 | NC(=O)c1cc2ccccc2o1 | 165 to 166 °C
18 | N#Cc1c(N2CCOCC2)cccc1[N+](=O)[O-] | 152 to 155 °C
19 | Cc1c(C)c2c(c(C)c1O)CC[C@](C)(C(=O)N[C@H]1CCOC1O)O2 (some centres not stated) | 67 to 70 °C
20 | COC(=O)c1c(-c2ccc(OC)cc2)sc2cc(OC)ccc12 | 85.4 to 86.6 °C
21 | CCOC(=O)C(NC(=O)c1ncn(Cc2ccccc2)c1[N+](=O)[O-])(OC)C(=O)OCC | 126 to 127 °C
22 | CC1(N2C(=O)c3cccc([N+](=O)[O-])c3C2=O)CCC(=O)NC1=O (configuration not stated) | 265 to 266 °C
23 | CN1CCN(S(=O)(=O)c2cccc(NC(=O)c3cnn4c(C(F)F)cc(-c5ccc(Cl)c(Cl)c5)nc34)c2)CC1 | 229 °C
24 | CC(C)n1nc(-c2cnc(N)nc2-c2ccncc2)ccc1=O | 219 °C
25 | CCOCCCc1ccc(Oc2ccc3c(c2)C=C(C(=O)Nc2ccc(CN(C)C4CCOCC4)cc2)CCS3(=O)=O)cc1 | 156 to 157 °C

Row | Structure (SMILES) | melting point
26 | CCOc1cc([C@@H](CC(=O)N(C)C)N2Cc3cccc(NC(=O)N(C)C)c3C2=O)ccc1OC | 105 to 107 °C
27 | FC(F)(F)c1ccc(Oc2ccc(CCNc3ncnc4nccnc34)cc2)nc1 | 147 to 150 °C
28 | O=C(C=Cc1cccc([N+](=O)[O-])c1)N1CCc2c([nH]c3ccccc23)C1c1ccc2c(c1)CCO2 (configuration not stated) | 174 to 176 °C
29 | CC(=O)n1cc(Cl)c(-c2cccc(Cl)c2)c1 | 88 to 90 °C
30 | Cc1cccc(-c2[nH]c(C(C)C)nc2-c2cccc(-c3ccc(NC(=O)C(C)(C)O)cc3)c2)n1 | 123 to 135 °C
31 | CN(CCC(=O)O)C(=O)N(c1ccc(Cl)cc1)C(C)(C)C | 90 to 95 °C
32 | CNC(=O)C1CCc2ccccc21 (configuration not stated) | 107 to 109 °C
33 | Oc1nc2ccc3c(Br)cccc3c2nc1O | > 300 °C
34 | CSc1ccccc1-n1ncc(-c2ccc(S(C)(=O)=O)cc2)c(-c2ccc(F)cc2)c1=O | 206 to 208 °C
35 | CCc1nc(NC)sc1C(=O)c1ccc(N)c([N+](=O)[O-])c1 | 210 to 215 °C
36 | COC1=CC=C2C(=CCC(C)(c3ccc(OC)cc3)C2CCCCCCO)C1 (configuration not stated) | 76 to 83 °C
37 | COc1cccc([C@H]2O[C@H](CC(=O)Nc3cc4c(c(CCC(=O)O)c3)CCCC4)C(=O)N(CC(C)(C)CO)c3ccc(Cl)cc32)c1OC | 160 to 162 °C
38 | CC1c2ccccc2-c2ccccc2N1S(=O)(=O)c1ccc(O)c(C(=O)O)c1 (configuration not stated) | 225 to 230 °C
39 | CC(C)(C)c1cc(NC(=O)c2cccc(C#N)c2)cc(C(C)(C)C)c1O | 219 to 222 °C
40 | CCOC(=O)C(=O)c1csc(NC(=O)Nc2ccc(F)cc2)n1 | 220 to 223 °C
41 | COc1c(C(c2ccccc2)c2ccccc2)ccc2ccccc12 | 119 to 121 °C
42 | CN(C)C=C1CCc2ccn(S(=O)(=O)c3ccccc3)c2C1=O | 116 to 118 °C
43 | CC1(C)Oc2ccc([N+](=O)[O-])cc2C(n2ccccc2=O)=C1CBr | 221 °C
44 | CC1(C)CCC(C)(C)c2cc(C#Cc3ccc(CN)cc3)ccc21 | 84 to 88 °C
45 | Nc1ccc2c(c1)CCc1cc(=O)[nH]nc1-2 | 290 to 292 °C
46 | CC(=O)c1cc(Cl)c(N)c2c1OCCO2 | 133 to 136 °C
47 | CCOC(Cc1ccc2oc(Cc3nc(-c4ccccc4)oc3C)cc2c1)C(N)=O (configuration not stated) | 165 to 168 °C
48 | CC(C)(C)OC(=O)[C@H]1CCCN1S(=O)(=O)c1ccc2c(Cl)cnc(Cl)c2c1 | 80 to 82 °C
49 | COC(=O)C(C)(C)OCc1cc2cc(C(F)(F)F)ccc2n1S(=O)(=O)c1ccc2c(c1)OCCO2 | 128 to 130 °C
50 | CCn1c(=O)c2c(nc(/C=C/c3ccc(OCc4ccccc4)cc3)n2C)n(CC)c1=O | 185 °C

Row | Structure (SMILES) | melting point
51 | Cc1cc2nc(C(C)C)c(CO)c(-c3ccc(F)cc3)n2n1 | 188 °C
52 | Cc1noc(-c2sc(N3CCN(Cc4ccc(C(F)(F)F)cc4)C3=O)nc2C)n1 | 163 to 164 °C
53 | Cc1ccc(C#N)c(C)c1COC(=O)[C@H]1[C@@H](C=C(Cl)C(F)(F)F)C1(C)C (relative stereo) | 98 °C
54 | CON=C(C1=NCCS1)c1ccccc1COc1cc(C)ccc1C | 79 to 82 °C
55 | O=C(O)CCCCc1ccc2ccccc2c1OCc1ccccc1 | 70 to 77 °C
56 | O=C(NCc1ccccc1)c1ccnc(-n2ccc(-c3ccccc3)cc2=O)c1 | 162 to 163 °C
57 | CC(Oc1cc(Cl)ccc1Br)C(=O)N(C)C (configuration not stated) | 76 to 77 °C
58 | Cc1ccc(C(=O)c2ccc(CC#N)n2C)c(Cl)c1 | 116 to 118 °C
59 | COc1cc2c(=O)c3c(Cl)ccc([N+](=O)[O-])c3[nH]c2cc1Cl | 284 to 285 °C
60 | COc1ccc2[nH]nc(N3CCNCC3)c2c1 | 163 to 169 °C
61 | COc1cccc(Cc2nnc(NCCSCc3nc[nH]c3C)[nH]c2=O)c1 | 203 to 204 °C
62 | COc1ccc(CN(CCN(C)CCN=C(NC#N)NCCSCc2csc(NC(=N)N)n2)c2ccccn2)cc1 | 56 to 58 °C
63 | CCOC(=O)c1cccc(NC(=O)NCC(=O)N2[C@@H](C(=O)OCC)CC[C@H]2c2ccccc2)c1 (racemic) | 136 °C
64 | CNC1(C)CN(c2cc3c(cc2F)c(=O)c(C(=O)O)cn3C2CC2)C1 | > 300 °C
65 | N#Cc1ccc2c(c1)-c1ccccc1OP2(=O)O | 240 °C
66 | O=C(Nc1ccc2[nH]c(C(F)(F)F)nc2c1)C(=O)N1CCC(Cc2ccccc2)CC1 | 142 °C
67 | COc1ccc(-c2nnc3c4ccccc4c(Nc4ccc(-c5nnn(C)n5)cc4)nn23)cc1 | 289 to 293 °C
68 | Cc1nn(C)cc1S(N)(=O)=O | 97 to 105 °C
69 | Nc1nc(N)nc(-c2cnccn2)n1 | > 250 °C
70 | O=S(=O)(F)c1ccc2ccccc2c1 | 85 to 86 °C
71 | Cc1ncoc1-c1ccc(C#N)cc1 | 120 to 121 °C
72 | O=C(NCc1ccccc1)c1cc2c(=O)n(Cc3ccccc3)c(=O)[nH]c2s1 | > 255 °C
73 | CC(C)(C)OC(=O)NC1CN(C(C(=O)OC(c2ccccc2)c2ccccc2)c2ccc(OC(=O)OC(C)(C)C)cc2)C1=O (configuration not stated) | 155 to 157 °C
74 | Nc1ncnc2c1ncn2Cc1ccccc1 | 231 to 232 °C
75 | CC(C)Oc1c(C(=O)O)sc2c1CN(C(=O)OC(C)(C)C)CC2 | 128 to 129 °C

Row | Structure (SMILES) | melting point
76 | O=Cc1cc2cccc3ccc4cccc1c4c32 | 172 to 174 °C
77 | O=C(O)c1ccc2c(c1)S(=O)c1cc(F)ccc1C=C2 (configuration not stated) | 255 to 257 °C
78 | CC(O)C#Cc1cc(F)c2ncc(C(=O)NCc3ccc(Cl)cc3)c(O)c2c1 (configuration not stated) | 232 to 234 °C
79 | CCCNC(=O)NCc1ccc2c(c1)C(=O)N(C1CCC(=O)NC1=O)C2=O (configuration not stated) | 166 to 168 °C
80 | C[Si](C)(C)C#Cc1ccc(C=O)cc1 | 66 to 67 °C
81 | Cc1cc(C2=NOC(c3cc(Cl)cc(Cl)c3)(C(F)(F)F)C2)ccc1C(=O)NCc1ccccn1 (configuration not stated) | 131 to 136 °C
82 | CCSC[C@@H]1[C@@H](c2ccc(Cl)c(Cl)c2)C[C@@H]2CC[C@H]1N2C | 69 to 71 °C
83 | COc1ccc(C(=O)c2ccc(Cl)cc2F)c(Cl)c1Cl | 115 to 116 °C
84 | CCCOc1ccc(S(=O)(=O)NC[C@@H](C(=O)NO)N2CCCCC2)cc1 | 147 °C
85 | CCCn1c(CCOC)nc2c(N)nc3cc(OC4CCN(S(C)(=O)=O)CC4)ccc3c21 | 224 to 226 °C
86 | CNc1nc(-c2cccc(-c3cncc(-c4ccccc4)c3)c2)c2cc(OC)c(OC)cc2n1 | 200 to 202 °C
87 | c1ccc2cc(-c3scc4c3OCCO4)ccc2c1 | 208 to 211 °C
88 | N#Cc1cccc(CCc2n[nH]c3c2c(=O)n(-c2ccccc2)c2ncccc32)c1 | 220 to 224 °C
89 | Cc1nc(-c2ccc3cnc(Nc4ccc(N5CCN(C)CC5)cc4)nn23)cn1C | 242 to 244 °C
90 | COc1ccc(C(=O)Nc2cc(NC(=O)c3cccc(Br)c3)ccc2C)cc1OC | 136 to 138 °C
91 | Nc1ccc(Cn2cc(C(F)(F)F)ccc2=O)cc1 | 97 to 98 °C
92 | CCC(CC)CNC(=O)c1ccc2cccc(Cc3ccc(C(=O)NS(=O)(=O)c4ccccc4C)cc3OC)c2c1 | 126 to 128 °C
93 | N#Cc1c(Cl)[nH]c(-c2ccc(Cl)s2)c1Br | > 200 °C
94 | COc1cc2cc(C(=O)Nc3cc(OCc4ccccc4)c4ccccc4c3CCCl)[nH]c2c(OC)c1OC | 180 to 184 °C
95 | O=C1N[C@H](Cc2ccc(C(F)(F)F)cc2)[C@@H](c2ccc(F)cc2)O1 (racemic) | 83 to 84 °C
96 | c1ccc2nc(-c3cc4nccnc4[nH]3)ccc2c1 | 293 to 295 °C
97 | NC(=O)c1cn(-c2ccc(F)cc2)c2cc(Cl)ccc2c1=O | 294 to 296 °C
